From a melting point compilation (Tetko et al.)

Structure (SMILES)	melting point
CS(=O)(=O)NC(=O)c1cc(Oc2ccc(C(F)(F)F)cc2Cl)ccc1[N+](=O)[O-]	220 °C
Brc1ccc2c3c(cccc13)CC2	52 °C
OCc1ccc(N2CCCCC2)nc1	70 to 71 °C
CC1CCC(C(C)C)C(OC(=O)CC#N)C1 (configuration not stated)	84 °C
CCC(=O)c1cccc([N+](=O)[O-])c1	101 °C
O=C1c2ccccc2C(=O)c2c1cc1ccccc1c2O	320 to 322 °C
c1ccc(CNc2ccccc2)cc1	37.5 °C
Nc1ccc2scnc2c1	55 to 59 °C
Cn1c(CO)cc2sccc21	103 to 104 °C
C#CC(C)(O)CC (configuration not stated)	30.5 °C
C=CC(=O)N1CCOCC1	-8 °C
CC(C)CC1=C/C(=C/c2ccc(-c3cccc([N+](=O)[O-])c3)o2)C(=O)O1	164 °C
Clc1cc2c(c(Cl)c1Cl)Oc1cc(Cl)c(Cl)c(Cl)c1O2	285 °C
Cc1csc2nc3ccccc3n12	161 to 163 °C
O=C1OC(c2ccccc2)=NC1=Cc1ccc(-c2ccccc2Br)o1	159 to 160 °C
N#CCC(=O)c1ccco1	81 to 83 °C
CC(=O)Nc1ccc(N=Nc2cc(C(C)C)c(N=Nc3ccc(NC(C)=O)cc3)cc2C)cc1	284 °C
NCCNCCO	-28 °C
O=C(O)c1cccnc1Oc1ccc(F)cc1	187 to 189 °C
CCCCCCCC(=O)Cl	-63 °C
CC(=O)Nc1ccc(F)cc1Cl	117 to 120 °C
O=Cc1cc(-c2cccs2)on1	66 °C
NNc1c(Cl)cc(Cl)cc1C(F)(F)F	40 to 43 °C
C[C@]1(O)C#CCCCCCC#C[C@@](C)(O)CC1	100 °C
CN(C)C1CSSC1	177 °C
CC(=O)Oc1cccc(O)c1	55 °C

Structure (SMILES)	melting point
Nc1c(Cl)cc(C(F)(F)F)cc1Br	31 °C
CC(=O)Nc1cc(NC(C)=O)c([N+](=O)[O-])cc1[N+](=O)[O-]	247 to 248 °C
C/C(=C(/C#N)c1nc2ccccc2s1)c1cc2ccccc2oc1=O	155 °C
Cc1cc2occ(C#N)c(=O)c2cc1C	206 to 210 °C
O=C(O)CN(CCOCCOCCN(CC(=O)O)CC(=O)O)CC(=O)O	240 to 245 °C
CCCCOC(=O)CC(C)=O	-35.6 °C
CCCCC=CC(=O)O	-19 °C
N#CC1(c2ccc(F)cc2)CCCCC1	33 to 38 °C
Nc1ncccc1OCc1ccccc1	94 to 98 °C
O=C(Cc1cc(CC(=O)c2ccccc2)c([N+](=O)[O-])cc1[N+](=O)[O-])c1ccccc1	170 to 171 °C
CC1(C)CCC(O)CC1	28 to 30 °C
COc1ccc(C=CC(=O)c2ccc3ccccc3c2)cc1	92 to 95 °C
Cc1cc(N)n(-c2ccccc2)n1	116 °C
COc1ccc2cc(C(C)O)ccc2c1 (racemic)	111 to 114 °C
Cc1ccc(O)cc1Br	56 °C
CCCCO[Si](OCCCC)(OCCCC)OCCCC	-80 °C
O=C(N=C=S)c1ccccc1	128 to 131 °C
Nc1cc2c3ccccc3ccc2c2ccccc12	210 °C
CN(C)c1ccc2c(C(F)(F)F)cc(=O)oc2c1	147 to 149 °C
OCc1ccc(-c2cccs2)cc1	112 °C
Cc1cc(N=O)ccc1N=O	137 °C
C/C(CCc1ccc2c(c1)NC(C)CC2)=N\NC(N)=O (configuration not stated)	128 °C
Oc1c(F)cc(Br)cc1Br	32 °C
CC(c1ccccc1)C(C(=O)O)c1ccccc1 (configuration not stated)	129 °C
CC1CC2=CC(=O)CCC2(C)C2CCC3(C)C(CCC3(C)O)C12 (configuration not stated)	164 °C
N#Cc1cc([N+](=O)[O-])cc(Cl)c1N	180 to 185 °C
